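Following 48 hours of exposure in 96-well plates, responses at five concentrations were used to interpolate endpoints linearly. TGI: total growth inhibition.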
Tests used:
Assay in all cases: NCI anticancer screen, dose series, 48 h
M19-MEL melanoma = system: M19-MEL melanoma
HOP-18 NSCLC = system: HOP-18 NSCLC
K-562 leukemia = system: K-562 leukemia
KM20L2 colon = system: KM20L2 colon
DMS 114 small cell lung = system: DMS 114 small cell lung
DLD-1 colon = system: DLD-1 colon
OVCAR-4 ovarian = system: OVCAR-4 ovarian
786-0 renal = system: 786-0 renal
SNB-78 CNS = system: SNB-78 CNS

O=C1C(=O)C(Br)(Br)C(Br)=C1Br
TGI (M19-MEL melanoma): 34.4 µM | TGI (HOP-18 NSCLC): 29.8 µM | TGI (K-562 leukemia): 41.3 µM | TGI (KM20L2 colon): 30.7 µM | TGI (DMS 114 small cell lung): 40.8 µM | TGI (DLD-1 colon): 41.4 µM | TGI (OVCAR-4 ovarian): 69.6 µM | TGI (786-0 renal): 32.1 µM

CCN(CC)C(=O)COc1ccc(Br)cc1Br
TGI (M19-MEL melanoma): > 100 µM | TGI (HOP-18 NSCLC): > 100 µM | TGI (K-562 leukemia): > 100 µM | TGI (KM20L2 colon): > 100 µM | TGI (DMS 114 small cell lung): > 100 µM | TGI (DLD-1 colon): > 100 µM | TGI (OVCAR-4 ovarian): > 100 µM | TGI (SNB-78 CNS): > 100 µM | TGI (786-0 renal): > 100 µM

O=C(COc1ccccc1)NS(=O)(=O)c1ccccc1
TGI (M19-MEL melanoma): > 100 µM | TGI (HOP-18 NSCLC): > 100 µM | TGI (K-562 leukemia): > 100 µM | TGI (KM20L2 colon): > 100 µM | TGI (DMS 114 small cell lung): > 100 µM | TGI (DLD-1 colon): > 100 µM | TGI (OVCAR-4 ovarian): > 100 µM | TGI (SNB-78 CNS): > 100 µM | TGI (786-0 renal): > 100 µM

O=c1cnn2c(n1)sc1ccc3ccccc3c12
TGI (M19-MEL melanoma): > 100 µM | TGI (HOP-18 NSCLC): > 100 µM | TGI (K-562 leukemia): > 100 µM | TGI (KM20L2 colon): > 100 µM | TGI (DMS 114 small cell lung): > 100 µM | TGI (DLD-1 colon): > 100 µM | TGI (OVCAR-4 ovarian): > 100 µM | TGI (SNB-78 CNS): > 100 µM | TGI (786-0 renal): > 100 µM

Cc1ccccc1C(C#N)C(=O)C(=O)Nc1cccc(Cl)c1 (centres undefined)
TGI (M19-MEL melanoma): 95.5 µM | TGI (K-562 leukemia): > 100 µM | TGI (KM20L2 colon): > 100 µM | TGI (DMS 114 small cell lung): > 100 µM | TGI (DLD-1 colon): > 100 µM | TGI (SNB-78 CNS): > 100 µM | TGI (786-0 renal): > 100 µM

Nc1c(-c2ccc(Cl)cc2Cl)[n+]([O-])c2ccccc2[n+]1[O-]
TGI (M19-MEL melanoma): > 100 µM | TGI (HOP-18 NSCLC): > 100 µM | TGI (K-562 leukemia): > 100 µM | TGI (KM20L2 colon): > 100 µM | TGI (DMS 114 small cell lung): > 100 µM | TGI (DLD-1 colon): > 100 µM | TGI (OVCAR-4 ovarian): > 100 µM | TGI (SNB-78 CNS): > 100 µM | TGI (786-0 renal): > 100 µM

CC1OC(OCC2COC(O)(Oc3c(-c4ccc(O)c(O)c4)oc4cc(O)cc(O)c4c3=O)C(O)C2O)C(O)C(O)C1O (centres undefined)
TGI (M19-MEL melanoma): > 100 µM | TGI (HOP-18 NSCLC): > 100 µM | TGI (K-562 leukemia): > 100 µM | TGI (KM20L2 colon): > 100 µM | TGI (DMS 114 small cell lung): > 100 µM | TGI (DLD-1 colon): > 100 µM | TGI (OVCAR-4 ovarian): > 100 µM | TGI (SNB-78 CNS): > 100 µM | TGI (786-0 renal): > 100 µM

CC1=C(C(=O)Nc2ccc(Cl)c(Cl)c2)C(c2ccco2)C(C(=O)Nc2ccc(Cl)c(Cl)c2)=C(C)N1
TGI (M19-MEL melanoma): 24.9 µM | TGI (HOP-18 NSCLC): 26.7 µM | TGI (K-562 leukemia): 29 µM | TGI (DMS 114 small cell lung): 22.2 µM | TGI (DLD-1 colon): 23.4 µM | TGI (OVCAR-4 ovarian): 24.6 µM | TGI (SNB-78 CNS): 41.4 µM | TGI (786-0 renal): 25.8 µM

CCOC(=O)c1cn(Cc2ccccc2)c(=O)n1Cc1ccccc1
TGI (M19-MEL melanoma): > 100 µM | TGI (HOP-18 NSCLC): > 100 µM | TGI (K-562 leukemia): > 100 µM | TGI (KM20L2 colon): > 100 µM | TGI (DMS 114 small cell lung): > 100 µM | TGI (DLD-1 colon): > 100 µM | TGI (OVCAR-4 ovarian): > 100 µM | TGI (SNB-78 CNS): > 100 µM | TGI (786-0 renal): > 100 µM

O=[N+]([O-])c1nccn1COCCF
TGI (M19-MEL melanoma): > 100 µM | TGI (K-562 leukemia): > 100 µM | TGI (KM20L2 colon): > 100 µM | TGI (DMS 114 small cell lung): > 100 µM | TGI (DLD-1 colon): > 100 µM | TGI (OVCAR-4 ovarian): > 100 µM | TGI (SNB-78 CNS): > 100 µM | TGI (786-0 renal): > 100 µM

COc1ccc(/C=C2\CCC(C)(CN(C)C)C2=O)cc1 (centres undefined)
TGI (M19-MEL melanoma): > 100 µM | TGI (HOP-18 NSCLC): > 100 µM | TGI (K-562 leukemia): > 100 µM | TGI (KM20L2 colon): > 100 µM | TGI (DMS 114 small cell lung): > 100 µM | TGI (DLD-1 colon): > 100 µM | TGI (OVCAR-4 ovarian): > 100 µM | TGI (SNB-78 CNS): > 100 µM | TGI (786-0 renal): > 100 µM

Cc1ccc(C)c(NC(=O)CC/C(=N\NC(=O)C(N)=O)C(C)C(=O)c2ccc(O)cc2)c1 (centres undefined)
TGI (M19-MEL melanoma): > 100 µM | TGI (HOP-18 NSCLC): > 100 µM | TGI (K-562 leukemia): > 100 µM | TGI (KM20L2 colon): > 100 µM | TGI (DMS 114 small cell lung): > 100 µM | TGI (DLD-1 colon): > 100 µM | TGI (OVCAR-4 ovarian): > 100 µM | TGI (SNB-78 CNS): > 100 µM | TGI (786-0 renal): > 100 µM

CC(C)(C)C(=O)C1CC(=O)c2ccccc2C1=O (centres undefined)
TGI (M19-MEL melanoma): > 100 µM | TGI (HOP-18 NSCLC): > 100 µM | TGI (K-562 leukemia): > 100 µM | TGI (KM20L2 colon): > 100 µM | TGI (DMS 114 small cell lung): > 100 µM | TGI (DLD-1 colon): > 100 µM | TGI (OVCAR-4 ovarian): > 100 µM | TGI (SNB-78 CNS): 90.7 µM | TGI (786-0 renal): > 100 µM

NC(=S)N/N=C1/C(=O)N(c2ccc(Cl)cc2Cl)C(=O)C(=O)C1c1nc2ccccc2s1 (centres undefined)
TGI (M19-MEL melanoma): > 100 µM | TGI (HOP-18 NSCLC): > 100 µM | TGI (K-562 leukemia): > 100 µM | TGI (KM20L2 colon): > 100 µM | TGI (DMS 114 small cell lung): > 100 µM | TGI (OVCAR-4 ovarian): > 100 µM | TGI (SNB-78 CNS): > 100 µM | TGI (786-0 renal): > 100 µM

Cc1cc(O)cc2c1O[C@@]1(C)CCC3[C@@]4(C)CC[C@H](O)C(C)(C)C4CC[C@@]3(C)[C@H]1C2 (some centres undefined)
TGI (M19-MEL melanoma): 25 µM | TGI (HOP-18 NSCLC): 27.8 µM | TGI (K-562 leukemia): 6.56 µM | TGI (DMS 114 small cell lung): 19.9 µM | TGI (DLD-1 colon): 12.6 µM | TGI (SNB-78 CNS): 22.1 µM | TGI (786-0 renal): 4.72 µM

Cc1cc(Cl)cc2c1NC(=O)C2(O)C(C)C(=O)c1ccc(Cl)cc1 (centres undefined)
TGI (M19-MEL melanoma): 26.2 µM | TGI (HOP-18 NSCLC): > 100 µM | TGI (K-562 leukemia): > 100 µM | TGI (KM20L2 colon): > 100 µM | TGI (DMS 114 small cell lung): > 96.6 µM | TGI (DLD-1 colon): > 100 µM | TGI (OVCAR-4 ovarian): 62.1 µM | TGI (SNB-78 CNS): > 100 µM | TGI (786-0 renal): > 100 µM

CCOC(=O)/C(=C/c1ccc(C#N)cc1)N(CC)CC
TGI (M19-MEL melanoma): > 100 µM | TGI (HOP-18 NSCLC): > 100 µM | TGI (K-562 leukemia): > 100 µM | TGI (DMS 114 small cell lung): > 100 µM | TGI (DLD-1 colon): > 100 µM | TGI (OVCAR-4 ovarian): > 100 µM | TGI (SNB-78 CNS): > 100 µM | TGI (786-0 renal): > 100 µM

From PubChem BioAssay (NCI)
